Assay results as given in article doi:10.1101/2025.08.13.670122v1 (bioRxiv, 2025).

Tests used:
[1] = molecular target: T1, AT1R (Homo sapiens, UniProt P30556); assay: β-arrestin2 recruitment BRET (β-arrestin2-RLucII/rGFP-CAAX) in HEK293 cells expressing AT1R; format: cell-based; set-up: expressed in transfected cells; host or cells: HEK293 cells, transient PEI transfection; conditions: for Emax βarr2 (% AngII): HEK293/AT1R, β-arrestin2 BRET, response of the ligand at 10 μM, normalised to AngII; for EC50: HEK293 cells transiently expressing AT1R, β-arrestin2-RLucII/rGFP-CAAX BRET, read 10 min after ligand, mean ± SEM of at least three to five independent experiments, SEM, read-out: EC50 βarr2
T1 sequence (P30556 1-359): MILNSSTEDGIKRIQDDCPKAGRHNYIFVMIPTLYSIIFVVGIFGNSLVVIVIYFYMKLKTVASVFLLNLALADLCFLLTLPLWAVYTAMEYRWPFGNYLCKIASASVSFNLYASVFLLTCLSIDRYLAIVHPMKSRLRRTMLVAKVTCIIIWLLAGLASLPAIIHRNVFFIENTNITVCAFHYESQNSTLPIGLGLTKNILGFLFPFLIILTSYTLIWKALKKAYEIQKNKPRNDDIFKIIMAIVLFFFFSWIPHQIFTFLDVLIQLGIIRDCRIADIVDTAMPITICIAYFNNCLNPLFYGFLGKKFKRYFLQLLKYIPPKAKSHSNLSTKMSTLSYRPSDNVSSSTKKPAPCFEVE
Excerpt: We utilized a clonal cell line HEK293, referred to hereafter as HEK293 cells, which has been previously described.[7],[8] As a gracious gift from A. Inoue (Tohoku University, Sendai, Miyagi, Japan), CRISPR Gαq/11 and Gα12/13 knockout cell lines (ΔGq/11 and ΔG12/13, respectively), were derived as previously explained.[48] In brief, a CRISPR-Cas9 system was used to target either GNAQ and GNA11 or GNA12 and GNA13 genes in HEK293T cells simultaneously to generate the Gαq/11 and Gα12/13 knockout cell lines. For the production of adenovirus, we utilized HEK293A cells. All cells were grown in DMEM supplemented with 10% FBS and Penicillin-Streptomycin-L-Glutamine (10000 IU penicillin, 10000 µg/mL Streptomycin, 200 mM L-Glutamine) at 37°C in T175 flasks under a 5% CO2 humidified chamber. Periodic testing was carried out for mycoplasma contamination (ABM™, Mycoplasma PCR Detection kit). For all biosensors used, cells underwent transfection with the PEI reagent, employing a PEI:DNA ratio of 3:1. For the Gαq biosensor, HEK293 cells were transfected with the plasmids coding for Gαq-RLucII (120 ng), Gβ1 (3000 ng), Gγ1-GFP10 (3000 ng), human AT1 (3000 ng) and Salmon sperm DNA (SSD) (880 ng). For the β-arrestin2 recruitment assay, HEK293 cells were transfected with the plasmids coding for 120 ng β-arrestin-2-RLucII, 3000 ng AT1, 3000 ng rGFP-CAAX, and 3880 ng SSD. For the measurement of PKC, HEK293 cells were transfected with 3000 ng AT1, 600 ng PKC-c1b, and 6400 ng SSD. […] 100 µL of the cell/DNA mixture was added to white 96-well plates and incubated at 37°C at 5% CO2 for 48 h. For the Rho assay, ΔG12/13 cells were seeded at a density of 9,000 cells per well in poly-ornithine-coated white 96-well plates and transfected the following day. In brief, 1 μg of total DNA in 100 μL of PBS was mixed with 100 μL of PBS containing 3 μL of 1 mg/mL PEI. For Rho signaling, 150 ng of AT1R DNA with 25 ng of PKN-RBD-RlucII [8], and 100 ng of rGFP-CAAX were used. Empty pcDNA was used to reach 1 µg of the total DNA amount in 100 μL of PBS. The DNA was then mixed with 100 μL of PBS containing 3 μL of 1 mg/mL PEI. After a 20-min incubation, the DNA/PEI complexes were dispensed into cells in 96-well plates (15 µL/well), and the experiment was carried out 48 h post-transfection.
On the day of the experiment, each well was washed with 80 µL of Tyrode’s buffer (140 mM NaCl, 2.7 mM KCl, 1 mM CaCl2, 12 mM NaHCO3, 5.6 mM D-glucose, 0.5 mM MgCl2, 0.37 mM NaH2PO4, 25 mM Hepes (pH 7.4)). This was followed by incubation for 1 h in Tyrode’s buffer at room temperature. For the Gαq, β-arrestin-2, and PKC biosensors used in HEK293 cells, coelenterazine 400A (at a final concentration of 5 μM) was added 10 min before stimulation. Cells were then stimulated with increasing doses of the indicated ligand, and BRET signals were measured using a Tristar2 (Berthold) microplate reader 10 min later. For the PKC and Rho biosensors in VSMCs, and the Rho biosensor in ΔG12/13 cells, cells were similarly stimulated with ligands for 1 min, 1 min 30 s, and 3 min, respectively, before BRET measurement. […] BRET signals were then measured using a Synergy2 (BioTek) microplate reader. The applied filter set was 410/80 nm and 515/30 nm, designed to detect the light emissions of RlucII (Renilla luciferase) (donor) and rGFP (acceptor), respectively.

[2] = molecular target: T1, AT1R; assay: 125I-AngII displacement binding on HEK293 cells expressing human AT1R; set-up: expressed in transfected cells; host or cells: HEK293 cells, transient; freeze-thaw broken cells; conditions: SEM; read-out: Ki (apparent affinity)
Method: HEK293 cells, transiently expressing the human AT1R (3 million cells transfected with 4 μg of AT1R plasmid), were washed once with PBS and submitted to one freeze-thaw cycle. […] Binding assays were carried out in 96-well plates. […] The incubation mixtures were filtered through binding plates (MultiScreen HTS, Merck Millipore, Cork, Ireland) and preincubated with the washing buffer for 1 h at 4°C to remove unbound ligands. The filtered membranes were washed thrice with 200 µL cold binding buffer (4°C). The filters with membranes were retrieved with punch tips (Filter Plates Punch Tips, Merck Millipore, Cork, Ireland). […] The dissociation constant (Ki value) was determined from the IC50 using the Cheng-Prusoff equation and presented as a mean ± SEM of three independent experiments, each conducted in duplicate. VSMC cells were seeded at 80,000 cells per well in poly-ornithine-coated 24-wells. […] The next day, cells were washed thrice with ice-cold PBS, solubilized in 0.5 mL of 0.2 M NaOH/0.05% SDS, and bound radioactivity was counted using a PerkinElmer Wizard 1470 automatic γ-counter. Protein quantities were evaluated using a Bradford assay.

Emax βarr2 (% AngII) [1] [% AngII] | EC50 [1] [nM] | Ki [2] [nM] | SMILES
105 | 0.36 ± 0.1 | 0.23 ± 0.18 | CC[C@H](C)[C@H](NC(=O)[C@H](Cc1ccc(O)cc1)NC(=O)[C@@H](NC(=O)[C@H](CCCNC(=N)N)NC(=O)[C@@H](N)CC(=O)O)C(C)C)C(=O)N[C@@H](Cc1c[nH]cn1)C(=O)N1CCC[C@H]1C(=O)N[C@@H](Cc1ccc(OC)cc1)C(=O)O [compound 11]
89 | 2.5 ± 0.4 | 1.4 ± 0.2 | CC[C@H](C)[C@H](NC(=O)[C@H](Cc1ccc(O)cc1)NC(=O)[C@@H](NC(=O)[C@H](CCCNC(=N)N)NC(=O)[C@@H](N)CC(=O)O)C(C)C)C(=O)N[C@@H](Cc1c[nH]cn1)C(=O)N1CCC[C@H]1C(=O)N[C@@H](Cc1ccc(OCc2ccccc2)cc1)C(=O)O [compound 12]
